Test results taken from PMC4660270 (Structure (London, England : 1993), 2015).

Target: TEAD4 (Homo sapiens, UniProt Q15561)
Experiment: ITC
Type: binding

TEAD4, sequence (Q15561 217-434): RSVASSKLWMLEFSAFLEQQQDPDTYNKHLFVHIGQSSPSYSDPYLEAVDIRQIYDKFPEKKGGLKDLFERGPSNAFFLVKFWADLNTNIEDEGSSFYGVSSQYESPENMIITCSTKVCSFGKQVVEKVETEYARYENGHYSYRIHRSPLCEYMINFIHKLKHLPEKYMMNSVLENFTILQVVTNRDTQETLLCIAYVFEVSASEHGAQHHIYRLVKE

`O=C(O)c1ccccc1Nc1cccc(C(F)(F)F)c1` [FA, flufenamic acid] gave a Kd of roughly 73 µM.
